Test results reported in US20060287251A1, “Combination therapy for glycaemic control” (priority 2003, published 2006).

Tested on: diabetic Zucker (fa/fa) rats
Assay: Glutaminyl thiazolidine and Metformin alone or in combination, glycemic control in diabetic Zucker (fa/fa) rats
Type: in vivo, rat
Settings: b.i.d. oral; for reactive and absolute G-AUC: p<0.05 vs. Control; for glucose tolerance curve in the OGTT: vs. Control
Protocol: Ten or eleven weeks old male Zucker (fa/fa) rats were purchased from Charles River (Sulzfeld, Germany). Animals were kept under standardized semi-barrier conditions with controlled temperature (22±2° C.) on a 12/12 hours light/dark cycle (light on at 06:00 a.m.). Standard pelleted chow (ssniff®, Soest, Germany) and tap water acidified with HCl were allowed ad libitum. At the age of 12 weeks the animals (N=42) were divided in random order into six experimental groups to be medicated. Definition of the Experimental Groups for the Medications (GT=glutaminyl thiazolidine):
The single or combined doses per kg b.w. were solved in 5 mL dist. water for oral administration.
The study was started with the 12 to 13 weeks old Zucker (fa/fa) rats. At the beginning of the study an OGTT was performed (2 g glucose/kg body weight (b.w.); administration volume: 5 mL/kg of a 40% solution; B. Braun Melsungen, Melsungen, Germany) after a 16 h fast. […] Dosing was performed at t=5 min before OGTT by gavage.
Blood samples were taken from tail veins to measure blood glucose and serum insulin at −15, ±0 min, 15, 30, 60, 90, 120 and 180 min (the latter time without insulin samples) with respect to time of glucose administration.
After the first OGTT the animals in the groups were dosed twice daily with the respective drugs at 08:00 AM and at 04:00 PM, respectively:
During the two weeks of medication morning blood glucose was measured before the 08:00 AM medication at Monday, Wednesday and Friday.
Food intake was determined every day during the time of medication.
All the animals were weighted three times per week at 7:30 AM.
A second OGTT was performed after two weeks of medication (Day 15). The food was withdrawn at 04:00 PM the day before (16 h fast). The OGTT was performed with pre-medication at −5 min and oral glucose loading at ±0 min. Blood samples were taken from tail veins to measure blood glucose, and serum insuline at −15, ±0 min, 15, 30, 60, 90, 120 and 180 min (the latter time without insulin samples).
Glycated hemoglobin was measured before (Day −7) and on Day 18.
Glucose-For determination of glucose 20 μL blood were collected at −15, ±0 min (before OGTT) and 15, 30, 60, 90, 120 and 180 min post OGTT.
Insulin-Insulin concentrations were assayed by the antibody RIA method (Linco Research, Inc. St. Charles, Mo., USA).
Glycated haemoglobin-Percentage of glycated hemoglobin A (HbA1c) was estimated with the “DCA 2000R Hämoglobin A1c-Reagenz kit”(Bayer Vital GmbH, Fernwald, Germany).
The body weight was measured using a platform balance (Scaltec, Heiligenstadt, Germany).
Mixed venous blood samples from the tails were collected into 20 μL glass capillaries, which were placed in standard tubes filled with 1 ml solution for hemolysis (blood glucose measurement) and in sample tubes for serum insulin (50 μL blood).
Raw data of glucose analysis were provided by IDK to probiodrug in Excel format as soon as possible. Data for each drug and each parameter (glucose, insulin) were summarized by descriptive statistics (mean, SEM). […] Changes from baseline were calculated and summarized by descriptive statistic.

[1] = GT 60 mg/kg b.w. and/or Metformin 125 mg/kg b.w. (Met-low)
[2] = Metformin 300 mg/kg b.w. (Met-high) with or without GT 60 mg/kg b.w.

Compound: CN(C)C(=N)N=C(N)N [Metformin, 1,1-Dimethylbiguanidine]
- reactive and absolute G-AUC [1]: significantly reduced
- glucose tolerance curve in the OGTT [1]: significantly improved glucose tolerance curves
- reactive and absolute G-AUC [2]: once more lowered
- glucose tolerance curve in the OGTT [2]: further improvement of glucose tolerance curve
